Experiments:
[1] = Long-term stability in feeds at room temperature (25° C.±2° C., RH 60%±10%; HPLC); assay type: physicochemical; conditions: for stability / content in feeds at room temperature (in words): during the testing period
Text: Feeds: ZUSF's premixed feed (A mixture of crushed Feed A and crushed Feed B at a weight ratio of 2:1, wherein Feed A was a 5.33% multi-premixed feed for piglets from ZUSF's Hao-Ru-Zhen-Jing, and B was a 2.67% multi-premixed feed for piglets from ZUSF's Hao-Ru-Zhen-Jing); creep feed for piglets from CP FEED; INSIGHTER's feed for broiler; 4% premixed feed from GUANGDONG CO-POWER.
Preparation of a sample of 1% premix of Ingredient: 1 g of an ingredient was respectively weighed out and evenly mixed with 99 g of corncob meal in a mixer to give a sample of 1% premix of an ingredient.
Preparation of a sample of 500 ppm feed of an ingredient: The sample of 1% premix of an ingredient was diluted step by step using the ZUSF's remixed feed to 5000 ppm and 500 ppm to give the sample of 500 ppm feed of an ingredient for later testing.
Preparation of a sample of 100 ppm feed of an ingredient: sample of 1% premix of an ingredient was diluted step by step using the creep feed for piglets from CP FEED to 1000 ppm and then 100 ppm to give the sample of 100 ppm feed of an ingredient for later testing.
Preparation of a sample of 100 ppm feed of an ingredient: The sample of 1% premix of an ingredient was diluted step by step using the INSIGHTER's feed for broiler to 1000 ppm and 100 ppm to give the sample of 100 ppm feed of an ingredient for later testing.
Preparation of a sample of 2000 ppm feed of an ingredient: The sample of 1% premix of an ingredient was diluted step by step using the 4% premixed feed from GUANGDONG CO-POWER to 5000 ppm and 2000 ppm to give the sample of 2000 ppm feed of an ingredient for later testing.
Method: Three replications of each feed sample were tested at the condition of 25° C.±2° C. and RH 60%±10%, wherein the replications of each feed sample were sampled in parallel for HPLC analysis on day 5, day 10, day 15, day 30, day 60, and day 90.
25.0 mg of an ingredient was accurately weighed out and dissolved in an appropriate amount of methanol or n-hexane by ultrasonication. The solution was then transferred to a volumetric flask and diluted to 50 mL to give a 500 ppm (by wt.) stock solution. The samples from the stock solution were diluted with methanol or n-hexane respectively to a concentration of 10 ppm, 25 ppm, 50 ppm, 100 ppm, and 250 ppm of work solution, and then the working solutions were filtered by 0.22 μm organic membranes. Between the concentration of a sample and the response value of HPLC peak area thereof, the linearity was adjusted and detected to give a standard curve.
5.0000 g of the samples sampled at different time intervals were respectively accurately weighed out, and dissolved in 25 mL of methanol or n-hexane by ultrasonication for 10 minutes. The resulting solutions were filtered by organic membranes and then analyzed by HPLC.
• Equipment: Waters e2695 with PDA detector. • Mobile phase: 0.02% phosphoric acid:methanol=5:95 (v:v). • Column: Symmetry Cis column (Waters; 250 mm×4.6 mm, 5 μm). • Wavelength: 235 nm. • Temperature of the Column: 25° C. • Injection volume: 10 μL. • Flow rate: 1 mL/min. Normal Phase Chromatography: • Equipment: Shimadzu LC-14C/SPD-15C. • Column: SuperSil NH2 column ([…]; 250 mm×4.6 mm). • Mobile phase: n-hexane:isopropanol=60:40 (v:v). • Wavelength: 235 nm. • Temperature of the Column: 25° C. • Injection volume: 20 μL. • Flow rate: 1 mL/min. 3: Results

[2] = Photostability testing under illumination of 4500 Lx of ingredient and 1% premix (HPLC); assay type: physicochemical; conditions: for Residual amount of active ingredient: 4500 Lx
Text: Preparation of a sample of 1% premix of an ingredient: 1 g of an ingredient was respectively weighed out and evenly mixed with 99 g of corncob meal in a mixer to give a sample of 1% premix of an ingredient for testing.
Photostability testing: The samples of an ingredient and 1% premix thereof were respectively spread in petri dishes to form thin layers of <5 mm, and kept under an illumination of 4500 Lx. Three replications for a sample were sampled in parallel on day 5 and day 10 for HPLC analysis.
25.0 mg of an ingredient was accurately weighed out and dissolved in an appropriate amount of methanol by ultrasonication. The solution was then transferred to a volumetric flask and diluted to 25 mL with methanol to give a stock solution. The samples from the stock solution were diluted with methanol respectively to a concentration of 100 ppm, 500 ppm, and 1000 ppm of work solution, and then the working solutions were filtered by 0.22 μm organic membranes. Between the concentration of a sample and the response value of HPLC peak area thereof, the linearity was adjusted and detected to give a standard curve.
2.3: Preparation of Sample Solution 25.0 mg of an ingredient and 2.0000 g of a sample of 1% premix thereof were respectively accurately weighed out, and dissolved in 25 mL of methanol by ultrasonication for 10 minutes. The resulting solutions were filtered by organic membranes and then analyzed by HPLC. 2.4: Testing Conditions for HPLC • Column: Symmetry Cis column (Waters; 250 mm*4.6 mm, 5 μm). • Mobile phase: 0.02% phosphoric acid:methanol=5:95 (v:v). • Wavelength: 235 nm. • Temperature of the Column: 25° C. • Injection volume: 10 μL. • Flow rate: 1 mL/min. 3: Results

[3] = 100 ppm in INSIGHTER's broiler feed, Day 5
[4] = 100 ppm in INSIGHTER's broiler feed, Day 15
[5] = 100 ppm in INSIGHTER's broiler feed, Day 30
[6] = 100 ppm in INSIGHTER's broiler feed, Day 60
[7] = 100 ppm in creep feed for piglets from CP FEED, Day 5
[8] = 100 ppm in creep feed for piglets from CP FEED, Day 15
[9] = 100 ppm in creep feed for piglets from CP FEED, Day 30
[10] = 100 ppm in creep feed for piglets from CP FEED, Day 60
[11] = 100 ppm in creep feed for piglets from CP FEED, Day 90
[12] = 500 ppm in ZUSF's premixed feed, Day 5
[13] = 500 ppm in ZUSF's premixed feed, Day 15
[14] = 500 ppm in ZUSF's premixed feed, Day 30
[15] = 500 ppm in ZUSF's premixed feed, Day 60
[16] = 500 ppm in ZUSF's premixed feed, Day 90
[17] = 1% Premix of an ingredient (corncob meal), Day 5
[18] = 1% Premix of an ingredient (corncob meal), Day 10

SMILES	Residual amount of active ingredient [1, 3] [%]	Residual amount of active ingredient [1, 4] [%]	Residual amount of active ingredient [1, 5] [%]	Residual amount of active ingredient [1, 6] [%]	Residual amount of active ingredient [1, 7] [%]	Residual amount of active ingredient [1, 8] [%]	Residual amount of active ingredient [1, 9] [%]	Residual amount of active ingredient [1, 10] [%]	Residual amount of active ingredient [1, 11] [%]	Residual amount of active ingredient [1, 12] [%]	Residual amount of active ingredient [1, 13] [%]	Residual amount of active ingredient [1, 14] [%]	Residual amount of active ingredient [1, 15] [%]	Residual amount of active ingredient [1, 16] [%]	stability / content in feeds at room temperature (in words) [1]	Residual amount of active ingredient [2, 17] [%]	Residual amount of active ingredient [2, 18] [%]	Residual amount of active ingredient ([2]; Ingredient, Day 5) [%]	Residual amount of active ingredient ([2]; Ingredient, Day 10) [%]	also measured
CC(=O)OC1=C(CCC(C)C)C(=O)C(CCC(C)C)(CCC(C)C)C(O)=C1C(=O)C(C)C [hexahydro-colupulone mono-acetate, Hexahydro-Colupulone Mono-Acetate]	94.93	81.77	72.30	71.97	97.69	96.27	96.22	96.16	95.08	96.65	96.65	96.84	95.23	85.29	relatively poor in some of the feeds	99.28	98.82	98.97	98.31	
CCCC(=O)OC1=C(CCC(C)C)C(=O)C(CCC(C)C)(CCC(C)C)C(O)=C1C(=O)C(C)C [hexahydro-colupulone mono-butyrate]	99.00	98.79	98.39	98.11	98.19	96.62	95.70	95.47	95.77	100.31	98.23	96.01	96.13	95.29		99.14	98.08	99.99	99.10	Residual amount of active ingredient ([1]; 2000 ppm in 4% premixed feed from GUANGDONG CO-POWER, Day 5): 98.62%; Residual amount of active ingredient ([1]; 2000 ppm in 4% premixed feed from GUANGDONG CO-POWER, Day 15): 95.56%; Residual amount of active ingredient ([1]; 2000 ppm in 4% premixed feed from GUANGDONG CO-POWER, Day 30): 95.48%; Residual amount of active ingredient ([1]; 2000 ppm in 4% premixed feed from GUANGDONG CO-POWER, Day 60): 96.34%; Residual amount of active ingredient ([1]; 2000 ppm in 4% premixed feed from GUANGDONG CO-POWER, Day 90): 95.41%
CC(C)CCC1=C(O)C(C(=O)C(C)C)=C(O)C(CCC(C)C)(CCC(C)C)C1=O [hexahydro-colupulone, reference compound]					98.28	96.93	93.07	77.54	68.28						decreased substantially	90.11	83.62	92.71	85.66	change of active ingredient ([2]; active ingredient of 1% premix, photostability testing, day 10): more than 15%

Source: patent US12673915B2, “Precursor compound of hexahydro-beta-acid component compound, feed composition and use thereof” (WISORIG TECHNOLOGIES PTE. LIMITED, priority 2020, dated 2026)
